Holding throughout (assay): two-electrode voltage clamp, Xenopus oocytes
Common to all, as to type: cell-based
A general note: Two-electrode voltage clamp is typically applied to oocytes expressing channels or transporters.

The target of one experiment is T1, AsegIR75p.1/AsegIR8a (Agrotis segetum, UniProt Z9OWS8C5E7).
T1 construct: full-length cDNA in pCS2+, cRNA co-injected with AsegIR8a cRNA in Xenopus laevis oocytes; with Ionotropic receptor 8a
T1 sequence (Z9OWS8C5E7 1-676): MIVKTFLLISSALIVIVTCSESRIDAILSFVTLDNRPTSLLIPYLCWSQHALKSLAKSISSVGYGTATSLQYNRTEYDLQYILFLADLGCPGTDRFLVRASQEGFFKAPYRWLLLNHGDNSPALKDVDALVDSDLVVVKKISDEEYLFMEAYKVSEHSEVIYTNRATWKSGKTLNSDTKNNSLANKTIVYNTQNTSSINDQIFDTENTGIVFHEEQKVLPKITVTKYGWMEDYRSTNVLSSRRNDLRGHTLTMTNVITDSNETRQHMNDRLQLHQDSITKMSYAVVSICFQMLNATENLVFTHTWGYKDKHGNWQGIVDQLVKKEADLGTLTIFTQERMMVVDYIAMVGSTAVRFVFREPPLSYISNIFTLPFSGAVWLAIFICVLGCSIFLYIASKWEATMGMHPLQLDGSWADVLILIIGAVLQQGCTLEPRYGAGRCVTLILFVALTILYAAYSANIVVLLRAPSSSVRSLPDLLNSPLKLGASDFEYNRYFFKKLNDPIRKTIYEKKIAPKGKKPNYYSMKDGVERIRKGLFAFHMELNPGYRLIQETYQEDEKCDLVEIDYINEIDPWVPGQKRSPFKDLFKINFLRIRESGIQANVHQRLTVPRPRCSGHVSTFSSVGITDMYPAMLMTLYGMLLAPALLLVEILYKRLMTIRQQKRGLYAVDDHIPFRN
The settings on record: agonist; co-expressed with AsegIR8a; -80 mV; pH 7.6; 0.1% DMSO; 100 μM and dose-response.

Experiment [1] addresses T2, AsegIR75q.1/AsegIR8a (Agrotis segetum, UniProt Z9J2I4KL46).
T2 construct: full-length cDNA in pCS2+, cRNA co-injected with AsegIR8a cRNA in Xenopus laevis oocytes; with Ionotropic receptor 8a
T2 sequence (Z9J2I4KL46 1-637): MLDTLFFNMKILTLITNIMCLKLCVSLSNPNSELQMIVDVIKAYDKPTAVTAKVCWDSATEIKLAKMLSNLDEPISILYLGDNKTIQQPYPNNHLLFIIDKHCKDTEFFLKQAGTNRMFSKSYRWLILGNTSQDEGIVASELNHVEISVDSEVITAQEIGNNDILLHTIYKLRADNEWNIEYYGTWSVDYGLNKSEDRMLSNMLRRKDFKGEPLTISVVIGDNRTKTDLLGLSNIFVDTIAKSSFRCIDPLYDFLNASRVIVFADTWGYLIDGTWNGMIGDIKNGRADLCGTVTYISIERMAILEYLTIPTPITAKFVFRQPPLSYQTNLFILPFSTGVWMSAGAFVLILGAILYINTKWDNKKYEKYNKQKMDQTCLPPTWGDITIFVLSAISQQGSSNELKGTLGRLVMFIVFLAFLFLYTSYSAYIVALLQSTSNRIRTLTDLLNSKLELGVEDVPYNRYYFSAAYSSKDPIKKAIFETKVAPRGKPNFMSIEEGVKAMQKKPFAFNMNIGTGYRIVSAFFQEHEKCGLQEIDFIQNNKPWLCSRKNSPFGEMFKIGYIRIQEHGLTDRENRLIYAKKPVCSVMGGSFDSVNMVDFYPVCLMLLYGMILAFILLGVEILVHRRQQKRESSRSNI
The settings on record: agonist; co-expressed with AsegIR8a; -80 mV; pH 7.6; 0.1% DMSO; dose-response.

Experiment [2] deals with T2, AsegIR75q.1/AsegIR8a. To be noted: agonist, weak; co-expressed with AsegIR8a; -80 mV; pH 7.6; 0.1% DMSO; 100 μM.

Structures are written as SMILES.

On to `CCCCCC(=O)O` [hexanoic acid], for which, at AsegIR75p.1/AsegIR8a, the “two-electrode voltage clamp, Xenopus oocytes” value (“two-electrode voltage clamp” below) is given as “The strongest response was elicited by hexanoic acid”. Same read-out and setting: to `CC/C=C\CCO` [(Z)-3-hexenol] belongs “hexanoic acid, followed by (Z)-3-hexenol, (E)-2-hexenal, and hexanal”. At AsegIR75q.1/AsegIR8a [1], `CCCCCCCCC(=O)O` [nonanoic acid] gave a threshold concentration of 1 µM. Turning to `CCCCCCC(=O)O` [heptanoic acid], the “two-electrode voltage clamp” value on AsegIR75q.1/AsegIR8a [2] was “This receptor also responded slightly to heptanoic acid and octanal”. For `CCCCCCCC=O` [octanal], at AsegIR75q.1/AsegIR8a [2], the “two-electrode voltage clamp” value was “This receptor also responded slightly to heptanoic acid and octanal”.

The values are drawn from PMC8822749, “Ionotropic receptors in the turnip moth Agrotis segetum respond to repellent medium-chain fatty acids” (BMC Biology, 2022).
